Read-outs that look alike come from different tables or passages of the source.
What was measured:
K562-MDR1 cells [1] = assay: MTT viability test, K562-MDR1; assay type: cell-based, human; conditions: for viability at 0.005 µM: 48 h, 0,005 µM; for IC50: MTT; for Cross-resistance of K562-MDR1 cells: MTT assay
Description: The K562-MDR1 cell line was developed using increasing concentrations of the commonly used antimitotic drug vincristine on a polyclonal K562 population, as described earlier. […] The DMSO concentration in the culture was 0.1%. The vincristine dose was doubled every 2–3 weeks (at least twice for each experiment) after the cells reached confluence. Cell’s viability was above 90%, as confirmed by Muse Cell Analyzer (Merck Millipore, Burlington, MA, USA). The final concentration of vincristine reached was 0.1 μM. The increase in the K562-MDR1 population was confirmed by flow cytometry and PCR.
(§1) Cells were seeded in 96-well plates; after 24 h, medium with the appropriate drug concentration was added to each well. After 48 h, Tetrazolium Bromide (Sigma-Aldrich, St. Louis, MO, USA) was added to each well for 2–3 h. After that, cells were lysed and formazan crystals were dissolved. Absorbance was read using an iMark Microplate absorbance reader (Bio-Rad, Hercules, CA, USA). Results were calculated relative to cells treated with DMSO only. […]
(§2) Cells were seeded in 96-well plates at 7 × 10^3 cells/well in 50 µL of complete medium (for K562 or K562-MDR1) or at 50 × 10^3 cells/well in 50 µL of complete medium (CD34+ cells). After 24 hours, 50 µL of medium with the appropriate drug concentration was added to each well. The final DMSO concentration per well was 1% for K562 and K562-MDR1 and 0.1% for CD34+ cells. After 48 hours, 20 µL of Tetrazolium Bromide (Sigma-Aldrich, St. Louis, MO, USA) at a concentration of 5 mg/mL was added to each well. Cells were incubated for 2-3 hours in a cell culture incubator, and then 10% SDS with 1% HCl was added to each well to lyse the cells and dissolve the formazan crystals. Plates were […]

K562 cells [2] = assay: MTT viability test, K562; assay type: cell-based; conditions: Homo sapiens; for viability at 0.005 µM: K562, 48 h, 0,005 µM; for IC50: K562
Procedure: CML cell line K562 CCL-243™ (BCR-ABL^+) was purchased from the ATCC® (Manassas, VA, USA). Cells were grown in RPMI 1640 medium containing HEPES (Biowest, Nuaillé, France) with 2 mM GlutaMAX (Gibco, Grand Island, NY, USA), supplemented with 10% fetal bovine serum (Sigma-Aldrich, St. Louis, MO, USA) and […] (Gibco, Grand Island, NY, USA) and 0.1 µM Vincristine (for K562-MDR1).
as §1, §2

K562 cells [3] = assay: K562 xenogeneic mouse model, tumor growth; assay type: in vivo, NSG mice
Procedure: Statistical analysis was performed using GraphPad Prism version 9.1.0. All in vitro experiments were performed in at least triplicate biological replicates and statistical results are expressed as mean ± standard deviation (SD). Statistical data of animal experiments are expressed as mean ± standard error of the mean (SEM). For experiments involving patients, the normality of the distribution was checked using the Shapiro–Wilk test and the statistical analysis was performed using one-way ANOVA with Dunnett’s post-test * p < 0.05, ** […], *** 0.001 > p > 0.0001, **** p < 0.0001.
Table S3. […] Control and
IP, intraperitoneal administration; O, orally

[4] = Blood morphology in K562 xenograft mice; conditions: 500 mg/kg IP daily 14 days, N=4
Procedure: (§3) Eight-week-old female NOD.Cg-Prkdcscid Il2rgtm1Wjl/SzJ NSG mice (Jackson Laboratory, Bar Harbor, ME, USA) were injected subcutaneously into the dorsal fold with 1 × 10^6 K562 cells of the human chronic myeloid leukemia (CML) line in a final volume of 100 µL (0.5% of the mouse weight). On day 3 after cell administration, mice were randomly assigned to each group, and on days 4–17 of the experiment, the selected tested compounds and control solutions were administered intraperitoneally or orally. During the experiment, subcutaneous tumors and body weight were measured daily. Tumor growth during the experiment was measured with an electronic display caliper. The theoretical tumor volume [mm], was calculated according to the formula (a^2 × b) * 0.5, where a is the shorter tumor axis [mm] and b is the longer tumor axis [mm]. On day 26, the experiment was terminated: blood was collected and analyzed for cellular morphology and standard biochemistry metabolites. Tumors were weighed.
(§4) Control and treated mice were grouped according to the tested compounds and the scheme of their administrations (doses, administration frequencies, routes of administration) in the CML xenogeneic model obtained by subcutaneous transplantation of 1 × 10^6 cells of the human CML blast line K562 into mice NOD.Cg-Prkdcscid Il2rgtm1Wjl/SzJ (NSG).
(§5) Hydroxyurea K562 500 mg/kg, IP Aqua pro 1 x daily 8

[5] = Body and organ weights in K562 xenograft mice
Procedure: as §3, §4, §5

K562-MDR1 cells [6] = assay: P-glycoprotein (CD243)/propidium iodide flow cytometry; assay type: cell-based, human; conditions: 1 µM, 24 h; for Proportion of K562-MDR1 cells, mean value: DMSO control 33.6%; for viability at 1 µM: Homo sapiens, DMSO control 89.2%, read-out: Living cells (viability), mean value
Procedure: BK124.1 or DMSO were added to cells and after 24 h incubation cells were harvested and stained with FITC Mouse Anti-Human P-glycoprotein (CD243) clone 17F9 (BD, Franklin Lakes, NJ, USA) or an appropriate isotype control. Propidium iodide was added to […]. Cells were analyzed on a BD FACSCalibur flow cytometer using CellQuest software (BD, Franklin Lakes, NJ, USA). […]
Flow cytometry analysis of CD243 (P-glycoprotein)
Cells were seeded at a concentration of 1-2 × 10^5 cells/mL in a 6- or 24-well plate. After 24 hours of pre-incubation, DMSO or test compounds in DMSO were added. The cells were then incubated for 24 hours. After this time, cells were harvested, washed with 0.5% BSA in PBS (Mg2+ and Ca2+ free), and labeled for 30 minutes on ice with FITC Mouse Anti-Human P-glycoprotein (CD243) clone 17F9 (BD, Franklin Lakes, NJ, USA) or an appropriate isotype control. Following incubation with the antibody, cells were stained with propidium iodide, washed with PBS and a nalyzed on a BD FACSCalibur flow cytometer using CellQuest software (BD, Franklin Lakes, NJ, USA). […]

[7] = Homo sapiens, 48 h, 0,05 µM, 48 h, mean ± SD, read-out: Viability in relation to control
[8] = Homo sapiens, 48 h, mean ± SD, read-out: Viability in relation to control
[9] = Homo sapiens, 48 h, 5 µM, 48 h, mean ± SD, read-out: Viability in relation to control
[10] = 48 h, mean ± SD, read-out: Viability in relation to control
[11] = mean ± SD, standard range 0.0-99.0
[12] = 500 mg/kg IP daily 14 days, mean ± SD, N=4

Compound: COc1cccc2c1C(=O)c1c(O)c3c(c(O)c1C2=O)C[C@@](O)(C(=O)CO)C[C@@H]3O[C@H]1C[C@H](N)[C@H](O)[C@H](C)O1 [doxorubicin]
- viability at 5 µM (K562-MDR1 cells [1]; [7]): 101%
- viability at 0.005 µM (K562-MDR1 cells [1]; [8]): 99.4%
- viability at 5 µM (K562-MDR1 cells [1]; [9]): 45.1%
- IC50 (K562-MDR1 cells [1]; Homo sapiens, 48 h): 7 µM
- Cross-resistance of K562-MDR1 cells (K562-MDR1 cells [1]): confirmed
- viability at 0.005 µM (K562 cells [2]; [10]): 97.7%
- IC50 (K562 cells [2]; MTT, 48 h): 3.7 µM

Compound: NC(=O)NO [hydroxyurea, reference compound]
- Tumor weights (K562 cells [3]; 500 mg/kg IP daily 14 days, mean ± SD, N=4, tumor growth control 9.2±2.1): 1.8 ± 0.9 g
- Tumor growth versus control groups (K562 cells [3]; BK124.1 20 or 30 mg/kg IP, imatinib 100 mg/kg orally, hydroxyurea 500 mg/kg IP, 1 x daily): effectively inhibited
- GRA [4, 11]: 26.0±7.6%
- LYMP [4, 11]: 58.0±9.9%
- MON [4, 11]: 16.0±3.8%
- HGB ([4]; mean ± SD, standard range 1.1-18): 13.1 ± 0.8 g/dL
- WBC ([4]; mean ± SD, standard range 3.0-15): 8.1±4.3 103/μL
- MPV ([4]; mean ± SD, standard range 4.6-7.3): 3.6±4.3 μm3
- RBC ([4]; mean ± SD, standard range 5.0-12): 6.9±0.4 106/μL
- RDW ([4]; mean ± SD, standard range 11.5-14.5): 17.3±0.6%
- MCH ([4]; mean ± SD, standard range 12-24.5): 18.9 ± 0.5 pg
- MCHC ([4]; mean ± SD, standard range 21.6-42): 31.5 ± 0.3 g/dL
- HCT ([4]; mean ± SD, standard range 36-52): 41.5±2.4%
- PLT ([4]; mean, standard range 140-600): 1575.5 103/μL
- Brain weight [5, 12]: 0.46 ± 0.02 g
- Heart weight [5, 12]: 0.11 ± 0.03 g
- Kidneys weight [5, 12]: 0.27 ± 0.04 g
- Liver weight [5, 12]: 1.16 ± 0.13 g
- Lung weight [5, 12]: 0.25 ± 0.08 g
- Splean weight [5, 12]: 0.05 ± 0.01 g
- Total body weight course ([5]; doses as in Table S3, control mice gained mass in the last 5 days): began to lose large quantities of weight

Compound: CC(=O)O[C@H]1C(=O)[C@@]2(C)[C@H]([C@H](OC(=O)c3ccccc3)[C@]3(O)C[C@H](OC(=O)[C@H](O)[C@@H](NC(=O)c4ccccc4)c4ccccc4)C(C)=C1C3(C)C)[C@]1(OC(C)=O)CO[C@@H]1C[C@@H]2O [paclitaxel]
- Proportion of K562-MDR1 cells, mean value (K562-MDR1 cells [6]): 33.7%
- viability at 1 µM (K562-MDR1 cells [6]): 77.2%
- viability at 5 µM (K562-MDR1 cells [1]; [7]): 89.9%
- viability at 5 µM (K562-MDR1 cells [1]; Homo sapiens, 48 h, 0,5 µM, 48 h, mean ± SD, read-out: Viability in relation to control): 48.4%
- viability at 0.005 µM (K562-MDR1 cells [1]; [8]): 100%
- viability at 5 µM (K562-MDR1 cells [1]; [9]): 44.3%
- IC50 (K562-MDR1 cells [1]; Homo sapiens, 48 h): 7 µM
- Cross-resistance of K562-MDR1 cells (K562-MDR1 cells [1]): confirmed
- viability at 0.005 µM (K562 cells [2]; [10]): 32.6%

Compound: CC[C@]1(O)C[C@H]2CN(CCc3c([nH]c4ccccc34)[C@@](C(=O)OC)(c3cc4c(cc3OC)N(C=O)[C@H]3[C@@](O)(C(=O)OC)[C@H](OC(C)=O)[C@]5(CC)C=CCN6CC[C@]43[C@@H]65)C2)C1 [vincristine]
- Proportion of K562-MDR1 cells, mean value (K562-MDR1 cells [6]): 37.0%
- viability at 1 µM (K562-MDR1 cells [6]): 79.7%
- viability at 1 µM (K562-MDR1 cells [1]; Homo sapiens, 48 h, 0,1 µM, 48 h, mean ± SD, read-out: Viability in relation to control): 94.3%
- viability at 0.001 µM (K562-MDR1 cells [1]; Homo sapiens, 48 h, 0,001 µM, 48 h, mean ± SD, read-out: Viability in relation to control): 106%
- viability at 1 µM (K562-MDR1 cells [1]; Homo sapiens, 48 h, 1 µM, 48 h, mean ± SD, read-out: Viability in relation to control): 32.4%
- viability at 0.005 µM (K562-MDR1 cells [1]; [8]): 111%
- IC50 (K562-MDR1 cells [1]; Homo sapiens, 48 h): 0.512 µM
- viability at 0.001 µM (K562 cells [2]; K562, 48 h, 0,001 µM, 48 h, mean ± SD, read-out: Viability in relation to control): 76.6%
- viability at 0.005 µM (K562 cells [2]; [10]): 32.6%
- IC50 (K562 cells [2]; MTT assay): 0.003 µM
